Test: xn = mol fraction of the nth substance listed
Details: 101 kPa, Liquid; for viscosity: Falling or rolling sphere viscometry; for speed of sound: Sing-around technique in a fixed-path interferometer; for mass density: Vibrating tube method

CCCCn1cc[n+](C)c1.F[B-](F)(F)F [1-butyl-3-methylimidazolium tetrafluoroborate] + CO
Details	mass density [kg/m3]	speed of sound [m/s]	viscosity [mPa·s]
278.15 K, x1 = 0.0501	893	1239	1.07
278.15 K, x1 = 0.0999	954.2	1294	1.7
278.15 K, x1 = 0.1498	999.7	1341	2.36
278.15 K, x1 = 0.2	1035.5	1383	3.35
278.15 K, x1 = 0.2999	1087.2	1447	6.22
278.15 K, x1 = 0.4008	1122.5	1493	11.1
278.15 K, x1 = 0.4995	1147.9	1527	20.6
278.15 K, x1 = 0.5999	1167.9	1552	35.3
278.15 K, x1 = 0.6991	1183.3	1573	60.2
278.15 K, x1 = 0.8006	1196.4	1589	108
278.15 K, x1 = 0.8494	1201.6	1596	143
278.15 K, x1 = 0.9006	1206.9	1603	196
278.15 K, x1 = 0.9501	1211.4	1611	264
278.15 K, x1 = 1	1215.9	1615	361
288.15 K, x1 = 0.0501	884	1209	0.905
288.15 K, x1 = 0.0999	945.5	1266	1.4
288.15 K, x1 = 0.1498	991.2	1315	1.91
288.15 K, x1 = 0.2	1027.2	1356	2.65
288.15 K, x1 = 0.2999	1079.1	1422	4.73
288.15 K, x1 = 0.4008	1114.6	1468	8.1
288.15 K, x1 = 0.4995	1140.2	1502	14.5
288.15 K, x1 = 0.5999	1160.3	1527	23.7
288.15 K, x1 = 0.6991	1175.9	1548	38.2
288.15 K, x1 = 0.8006	1189	1564	64.8
288.15 K, x1 = 0.8494	1194.3	1571	82.5
288.15 K, x1 = 0.9006	1199.6	1578	110
288.15 K, x1 = 0.9501	1204	1586	143
288.15 K, x1 = 1	1208.5	1590	186
298.15 K, x1 = 0.0501	875	1179	0.779
298.15 K, x1 = 0.0999	936.8	1238	1.18
298.15 K, x1 = 0.1498	982.8	1288	1.58
298.15 K, x1 = 0.2	1018.9	1331	2.16
298.15 K, x1 = 0.2999	1071	1397	3.73
298.15 K, x1 = 0.4008	1106.8	1443	6.18
298.15 K, x1 = 0.4995	1132.5	1477	10.7
298.15 K, x1 = 0.5999	1152.8	1503	16.9
298.15 K, x1 = 0.6991	1168.5	1524	25.8
298.15 K, x1 = 0.8006	1181.7	1540	41.5
298.15 K, x1 = 0.8494	1187.1	1547	51.6
298.15 K, x1 = 0.9006	1192.4	1554	66.9
298.15 K, x1 = 0.9501	1196.9	1562	83.8
298.15 K, x1 = 1	1201.3	1565	105
308.15 K, x1 = 0.0501	866	1150	0.679
308.15 K, x1 = 0.0999	928.1	1211	1.01
308.15 K, x1 = 0.1498	974.3	1262	1.33
308.15 K, x1 = 0.2	1010.6	1305	1.8
308.15 K, x1 = 0.2999	1063.1	1372	3.02
308.15 K, x1 = 0.4008	1099	1418	4.88
308.15 K, x1 = 0.4995	1124.9	1454	8.17
308.15 K, x1 = 0.5999	1145.3	1479	12.7
308.15 K, x1 = 0.6991	1161.1	1500	18.5
308.15 K, x1 = 0.8006	1174.5	1517	28.4
308.15 K, x1 = 0.8494	1179.9	1524	34.4
308.15 K, x1 = 0.9006	1185.3	1531	43.3
308.15 K, x1 = 0.9501	1189.8	1538	53.3
308.15 K, x1 = 1	1194.2	1542	64.8
318.15 K, x1 = 0.0501	857	1121	0.6
318.15 K, x1 = 0.0999	919.4	1184	0.873
318.15 K, x1 = 0.1498	965.8	1236	1.14
318.15 K, x1 = 0.2	1002.4	1280	1.52
318.15 K, x1 = 0.2999	1055.1	1348	2.51
318.15 K, x1 = 0.4008	1091.3	1394	3.96
318.15 K, x1 = 0.4995	1117.4	1430	6.45
318.15 K, x1 = 0.5999	1137.9	1456	9.83
318.15 K, x1 = 0.6991	1153.8	1477	13.7
318.15 K, x1 = 0.8006	1167.3	1493	20.4
318.15 K, x1 = 0.8494	1172.7	1501	24.2
318.15 K, x1 = 0.9006	1178.2	1508	30
318.15 K, x1 = 0.9501	1182.7	1515	36
318.15 K, x1 = 1	1187.2	1519	42.7
